Assay results reported in US8309586B2, “Glucokinase activators and pharmaceutical compositions containing the same as an active ingredient” (LG Life Sciences Ltd., priority 2007, dated 2012).

Test system: Glucokinase known as hexokinase IV (human GK isoform 1, pancreas form and human GK isoform 2, liver form)
Assay: Glucokinase enzymatic activity assay (G6PDH-coupled, NADH absorbance at 340 nm)
Format: biochemical
Settings: 5 mM glucose, 1 mM ATP, 37 nM GK, 10 min at room temperature
Procedure: Glucokinase known as hexokinase IV (human GK isoform 1, pancreas form and human GK isoform 2, liver form) was cloned into an expression vector pET15 fx (Novagen Co.), transformed to E. coli BL21 (DE3) (Invitrogen Co.) strain, expressed, and purified using a nickel column. Then, the glucokinase obtained from dialysis was used in the following assay.
Glucokinase assay was performed by measuring absorbance according to the conventional manner. Briefly speaking, glucokinase converts the substrate glucose to glucose-6-phosphate under certain conditions, and glucose-6-phosphate dehydrogenase irreversibly converts glucose-6-phosphate to gluconate-6-phosphate. During this procedure, NADH is formed, and its absorbance is measured to calculate the enzymatic activity.
In the measurement of the enzymatic activity, each compound was diluted by two-fold from the maximum to the minimum concentrations, and 2 μl of each solution was added to 96 well UV plate (BD bioscience). 60 μl of the first mixture (final concentrations 25 mM Hepes, 25 mM KCl, 2 mM MgCl2, 1 mM DTT) was added, and thoroughly mixed. 38 μl of the enzyme mixture (final concentrations 1 mM ATP, 1 mM NAD, 5 mM glucose, 0.85U G6PDH, 37 nM GK) was added (final volume 100 μl), and the mixture was reacted for 10 min at room temperature. The absorbance of NADH was measured at 340 nm using a UV spectrometer (Molecular Device).
The enzyme activating abilities of the compounds according to the present invention are represented as AC1.5 (the compound concentration at which the enzymatic activity is increased by 1.5 times, nM), which is in the range of 0.001 uM to 30 uM or less, preferably 0.001 uM to 10 uM, more preferably 0.001 uM to 1 uM.

SMILES: CS(=O)(=O)N1CCC(Nc2cccc3cc(C4=N[C@H](CO)CS4)[nH]c23)C1 (stereo partly drawn) [Example 4, {(R)-2-[7-(1-methanesulfonyl-pyrrolidin-3-ylamino)-1H-indol-2-yl]-4,5-dihydro-thiazol-4-yl}-methanol]
- AC1.5 (the compound concentration at which the enzymatic activity is increased by 1.5 times): 217 nM

SMILES: c1cc(NC2CCCC2)c2[nH]c(C3=N[C@H](CN4CCOCC4)CS3)cc2c1 [Example 16, cyclopentyl-[2-((R)-4-morpholin-4-ylmethyl-4,5-dihydro-thiazol-2-yl)-1H-indol-7-yl]-amine]
- AC1.5 (the compound concentration at which the enzymatic activity is increased by 1.5 times): 64 nM

SMILES: CN(C)CC[C@@H]1CSC(c2cc3cccc(Oc4ccccc4)c3[nH]2)=N1 [Example 178, dimethyl-{2-[(R)-2-(7-phenoxy-1H-indol-2-yl)-4,5-dihydro-thiazol-4-yl]ethyl}-amine]
- AC1.5 (the compound concentration at which the enzymatic activity is increased by 1.5 times): 21 nM

SMILES: c1cc(NC2CCCC2)c2[nH]c(C3=N[C@H](CCN4CCCCC4)CS3)cc2c1 [Example 144, cyclopentyl-{2-[(R)-4-(2-piperidin-1-yl-ethyl)-4,5-dihydro-thiazol-2-yl]-1H-indol-7-yl}-amine]
- AC1.5 (the compound concentration at which the enzymatic activity is increased by 1.5 times): 122 nM

SMILES: CNC(=O)C[C@@H]1CSC(c2cc3cc(Cl)cc(NC4CCOCC4)c3[nH]2)=N1 [Example 82, 2-{(R)-2-[5-chloro-7-(tetrahydro-pyran-4-ylamino)-1H-indol-2-yl]-4,5-dihydro-thiazol-4-yl}-N-methyl-acetamide]
- AC1.5 (the compound concentration at which the enzymatic activity is increased by 1.5 times): 22 nM

SMILES: CC(=O)N1CCN(CCC[C@@H]2CSC(c3cc4cc(Cl)cc(NC5CCCC5)c4[nH]3)=N2)CC1 [Example 155, 1-(4-{3-[(R)-2-(5-chloro-7-cyclopentylamino-1H-indol-2-yl)-4,5-dihydro-thiazol-4-yl]-propyl}-piperazin-1-yl)-ethanone]
- AC1.5 (the compound concentration at which the enzymatic activity is increased by 1.5 times): 12 nM

SMILES: CN(C)C(=O)C[C@@H]1CSC(c2cc3cc(Cl)cc(NC4CCCC4)c3[nH]2)=N1 [Example 77, 2-[(R)-2-(5-chloro-7-cyclopentylamino-1H-indol-2-yl)-4,5-dihydro-thiazol-4-yl]-N,N-dimethyl-acetamide]
- AC1.5 (the compound concentration at which the enzymatic activity is increased by 1.5 times): 27 nM

SMILES: OCC[C@@H]1CSC(c2cc3cc(F)cc(NC4CCCC4)c3[nH]2)=N1 [Example 39, 2-[(R)-2-(7-cyclopentylamino-5-fluoro-1H-indol-2-yl)-4,5-dihydro-thiazol-4-yl]-ethanol]
- AC1.5 (the compound concentration at which the enzymatic activity is increased by 1.5 times): 6 nM

SMILES: O=S1(=O)CCN(CC[C@@H]2CSC(c3cc4cc(F)cc(NC5CCOCC5)c4[nH]3)=N2)CC1 [Example 137, (2-{(R)-4-[2-(1,1-dioxo-thiomorpholin-4-yl)-ethyl]-4,5-dihydro-thiazol-2-yl}-5-fluoro-1H-indol-7-yl)-(tetrahydropyran-4-yl)-amine]
- AC1.5 (the compound concentration at which the enzymatic activity is increased by 1.5 times): 23 nM

SMILES: O=C(O)CC[C@@H]1CSC(c2cc3cc(Cl)cc(NC4CCCC4)c3[nH]2)=N1 [Example 149, 3-[(R)-2-(5-chloro-7-cyclopentylamino-1H-indol-2-yl)-4,5-dihydro-thiazol-4-yl]-propionic acid]
- AC1.5 (the compound concentration at which the enzymatic activity is increased by 1.5 times): 12 nM

SMILES: O=C(O)CC[C@@H]1CSC(c2cc3cc(F)cc(NC4CCCC4)c3[nH]2)=N1 [Example 161, 3-[(R)-2-(7-cyclopentylamino-5-fluoro-1H-indol-2-yl)-4,5-dihydro-thiazol-4-yl]-propionic acid]
- AC1.5 (the compound concentration at which the enzymatic activity is increased by 1.5 times): 10 nM

SMILES: Clc1cc(NC2CCCC2)c2[nH]c(C3=N[C@H](CCN4CCCCC4)CS3)cc2c1 [Example 104, {5-chloro-2-[(R)-4-(2-piperidin-1-yl-ethyl)-4,5-dihydro-thiazol-2-yl]-1H-indol-7-yl}-cyclopentyl-amine]
- AC1.5 (the compound concentration at which the enzymatic activity is increased by 1.5 times): 13 nM
